# Measurements taken from the NIST ThermoML archive (doi:10.1021/acs.jced.8b01236).
# Numbers after ± are expanded uncertainties.
# Test: xn = mol fraction of the nth substance listed
# Details: Liquid; for binary diffusion coefficient: Open capillary; for mass density: Pycnometric method
compound,measurement,setting,value
CCCCCC[N+]1(C)CCCC1.O=S(=O)([N-]S(=O)(=O)C(F)(F)F)C(F)(F)F + O=C=O,binary diffusion coefficient,"298.15 K, 100 kPa, x2 = 0.2",1.6e-10 m2/s
same,binary diffusion coefficient,"298.15 K, 1000 kPa, x2 = 0.2",2.4e-10 m2/s
same,mass density,"298.15 K, 1004 kPa, x2 = 0.236",1360 ± 9 kg/m3
same,binary diffusion coefficient,"298.15 K, 2000 kPa, x2 = 0.2",4e-10 m2/s
same,mass density,"298.15 K, 2030 kPa, x2 = 0.403",1354 ± 8 kg/m3
same,mass density,"298.15 K, 2493 kPa, x2 = 0.484",1343 ± 6 kg/m3
same,mass density,"298.15 K, 3003 kPa, x2 = 0.531",1345 ± 6 kg/m3
same,mass density,"298.15 K, 3496 kPa, x2 = 0.577",1336 ± 8 kg/m3
same,mass density,"298.15 K, 3999 kPa, x2 = 0.614",1324 ± 8 kg/m3
same,mass density,"298.15 K, 4496 kPa, x2 = 0.653",1308 ± 8 kg/m3
same,mass density,"298.15 K, 4998 kPa, x2 = 0.683",1299 ± 8 kg/m3
same,mass density,"298.15 K, 5521 kPa, x2 = 0.716",1294 ± 10 kg/m3
same,mass density,"298.15 K, 5995 kPa, x2 = 0.738",1281 ± 12 kg/m3
same,mass density,"298.15 K, 6387 kPa, x2 = 0.751",1263 ± 22 kg/m3
same,mass density,"318.15 K, 1005 kPa, x2 = 0.179",1346 ± 7 kg/m3
same,mass density,"318.15 K, 2021 kPa, x2 = 0.315",1332 ± 7 kg/m3
same,mass density,"318.15 K, 2513 kPa, x2 = 0.366",1315 ± 6 kg/m3
same,mass density,"318.15 K, 2996 kPa, x2 = 0.416",1323 ± 6 kg/m3
same,mass density,"318.15 K, 4039 kPa, x2 = 0.515",1311 ± 8 kg/m3
same,mass density,"318.15 K, 6032 kPa, x2 = 0.632",1301 ± 12 kg/m3
same,mass density,"318.15 K, 7998 kPa, x2 = 0.72",1291 ± 20 kg/m3
same,mass density,"318.15 K, 9884 kPa, x2 = 0.783",1345 ± 44 kg/m3
same,binary diffusion coefficient,"318.2 K, 100 kPa, x2 = 0.15",2.3e-10 m2/s
same,binary diffusion coefficient,"318.2 K, 1000 kPa, x2 = 0.15",3.8e-10 m2/s
same,binary diffusion coefficient,"318.2 K, 1800 kPa, x2 = 0.15",3.8e-10 m2/s
same,mass density,"338.15 K, 1001 kPa, x2 = 0.118",1307 ± 7 kg/m3
same,mass density,"338.15 K, 2028 kPa, x2 = 0.264",1315 ± 7 kg/m3
same,mass density,"338.15 K, 2537 kPa, x2 = 0.293",1311 ± 7 kg/m3
same,mass density,"338.15 K, 3030 kPa, x2 = 0.346",1310 ± 6 kg/m3
same,mass density,"338.15 K, 4022 kPa, x2 = 0.443",1313 ± 6 kg/m3
same,mass density,"338.15 K, 5027 kPa, x2 = 0.508",1311 ± 8 kg/m3
same,mass density,"338.15 K, 6014 kPa, x2 = 0.561",1307 ± 8 kg/m3
same,mass density,"338.15 K, 7501 kPa, x2 = 0.637",1310 ± 8 kg/m3
same,mass density,"338.15 K, 10006 kPa, x2 = 0.706",1319 ± 16 kg/m3
same,mass density,"338.15 K, 12478 kPa, x2 = 0.752",1325 ± 18 kg/m3
same,mass density,"338.15 K, 14944 kPa, x2 = 0.771",1341 ± 12 kg/m3
CCCC[N+]1(C)CCCC1.O=S(=O)([N-]S(=O)(=O)C(F)(F)F)C(F)(F)F + O=C=O,binary diffusion coefficient,"298.15 K, 100 kPa, x2 = 0.2",1.3e-10 m2/s
same,mass density,"298.15 K, 996 kPa, x2 = 0.199",1385 ± 7 kg/m3
same,binary diffusion coefficient,"298.15 K, 1000 kPa, x2 = 0.2",1.6e-10 m2/s
same,mass density,"298.15 K, 1997 kPa, x2 = 0.379",1377 ± 6 kg/m3
same,binary diffusion coefficient,"298.15 K, 2000 kPa, x2 = 0.2",3e-10 m2/s
same,mass density,"298.15 K, 2502 kPa, x2 = 0.449",1371 ± 6 kg/m3
same,mass density,"298.15 K, 3031 kPa, x2 = 0.51",1361 ± 6 kg/m3
same,mass density,"298.15 K, 3511 kPa, x2 = 0.559",1351 ± 6 kg/m3
same,mass density,"298.15 K, 4013 kPa, x2 = 0.602",1348 ± 6 kg/m3
same,mass density,"298.15 K, 4504 kPa, x2 = 0.638",1345 ± 6 kg/m3
same,mass density,"298.15 K, 5002 kPa, x2 = 0.674",1339 ± 6 kg/m3
same,mass density,"298.15 K, 5512 kPa, x2 = 0.702",1336 ± 8 kg/m3
same,mass density,"298.15 K, 6040 kPa, x2 = 0.728",1326 ± 10 kg/m3
same,mass density,"298.15 K, 6378 kPa, x2 = 0.745",1330 ± 18 kg/m3
same,mass density,"318.15 K, 1005 kPa, x2 = 0.156",1387 ± 7 kg/m3
same,mass density,"318.15 K, 2046 kPa, x2 = 0.311",1391 ± 7 kg/m3
same,mass density,"318.15 K, 3019 kPa, x2 = 0.436",1389 ± 6 kg/m3
same,mass density,"318.15 K, 4000 kPa, x2 = 0.528",1397 ± 8 kg/m3
same,mass density,"318.15 K, 6033 kPa, x2 = 0.638",1380 ± 12 kg/m3
same,mass density,"318.15 K, 8002 kPa, x2 = 0.714",1378 ± 18 kg/m3
same,binary diffusion coefficient,"318.2 K, 100 kPa, x2 = 0.15",2.2e-10 m2/s
same,binary diffusion coefficient,"318.2 K, 1000 kPa, x2 = 0.15",2.9e-10 m2/s
same,binary diffusion coefficient,"318.2 K, 2000 kPa, x2 = 0.15",3.3e-10 m2/s
same,mass density,"338.15 K, 1019 kPa, x2 = 0.123",1368 ± 7 kg/m3
same,mass density,"338.15 K, 2011 kPa, x2 = 0.23",1358 ± 28 kg/m3
same,mass density,"338.15 K, 2520 kPa, x2 = 0.301",1369 ± 6 kg/m3
same,mass density,"338.15 K, 3004 kPa, x2 = 0.345",1369 ± 6 kg/m3
same,mass density,"338.15 K, 4000 kPa, x2 = 0.435",1371 ± 6 kg/m3
same,mass density,"338.15 K, 5007 kPa, x2 = 0.495",1380 ± 8 kg/m3
same,mass density,"338.15 K, 6020 kPa, x2 = 0.537",1357 ± 8 kg/m3
same,mass density,"338.15 K, 7504 kPa, x2 = 0.606",1348 ± 8 kg/m3
same,mass density,"338.15 K, 10012 kPa, x2 = 0.682",1349 ± 16 kg/m3
same,mass density,"338.15 K, 12486 kPa, x2 = 0.712",1384 ± 18 kg/m3
same,mass density,"338.15 K, 14895 kPa, x2 = 0.728",1387 ± 12 kg/m3
CCC[N+]1(C)CCCC1.O=S(=O)([N-]S(=O)(=O)C(F)(F)F)C(F)(F)F + O=C=O,binary diffusion coefficient,"298.15 K, 100 kPa, x2 = 0.2",1.3e-10 m2/s
same,binary diffusion coefficient,"298.15 K, 1000 kPa, x2 = 0.2",1.8e-10 m2/s
same,mass density,"298.15 K, 1009 kPa, x2 = 0.236",1464 ± 11 kg/m3
same,binary diffusion coefficient,"298.15 K, 2000 kPa, x2 = 0.2",2.4e-10 m2/s
same,mass density,"298.15 K, 2028 kPa, x2 = 0.389",1420 ± 17 kg/m3
same,mass density,"298.15 K, 3030 kPa, x2 = 0.503",1411 ± 12 kg/m3
same,mass density,"298.15 K, 3507 kPa, x2 = 0.553",1408 ± 9 kg/m3
same,mass density,"298.15 K, 4038 kPa, x2 = 0.598",1401 ± 6 kg/m3
same,mass density,"298.15 K, 4517 kPa, x2 = 0.632",1390 ± 8 kg/m3
same,mass density,"298.15 K, 5014 kPa, x2 = 0.661",1386 ± 9 kg/m3
same,mass density,"298.15 K, 5505 kPa, x2 = 0.688",1385 ± 15 kg/m3
same,mass density,"298.15 K, 6003 kPa, x2 = 0.709",1373 ± 12 kg/m3
same,mass density,"298.15 K, 6397 kPa, x2 = 0.725",1363 ± 22 kg/m3
same,mass density,"318.15 K, 1055 kPa, x2 = 0.185",1441 ± 7 kg/m3
same,mass density,"318.15 K, 2223 kPa, x2 = 0.323",1437 ± 6 kg/m3
same,mass density,"318.15 K, 4005 kPa, x2 = 0.471",1407 ± 7 kg/m3
same,mass density,"318.15 K, 5004 kPa, x2 = 0.528",1392 ± 7 kg/m3
same,mass density,"318.15 K, 6004 kPa, x2 = 0.575",1374 ± 8 kg/m3
same,mass density,"318.15 K, 7010 kPa, x2 = 0.621",1356 ± 9 kg/m3
same,mass density,"318.15 K, 8010 kPa, x2 = 0.664",1366 ± 10 kg/m3
same,mass density,"318.15 K, 16527 kPa, x2 = 0.731",1385 ± 8 kg/m3
same,mass density,"318.15 K, 19966 kPa, x2 = 0.751",1406 ± 7 kg/m3
same,binary diffusion coefficient,"318.2 K, 100 kPa, x2 = 0.15",2.7e-10 m2/s
same,binary diffusion coefficient,"318.2 K, 1000 kPa, x2 = 0.15",3e-10 m2/s
same,binary diffusion coefficient,"318.2 K, 2000 kPa, x2 = 0.15",3.7e-10 m2/s
same,mass density,"338.15 K, 1009 kPa, x2 = 0.065",1400 ± 10 kg/m3
same,mass density,"338.15 K, 2002 kPa, x2 = 0.198",1405 ± 9 kg/m3
same,mass density,"338.15 K, 2508 kPa, x2 = 0.249",1393 ± 9 kg/m3
same,mass density,"338.15 K, 3007 kPa, x2 = 0.328",1408 ± 12 kg/m3
same,mass density,"338.15 K, 4008 kPa, x2 = 0.413",1404 ± 14 kg/m3
same,mass density,"338.15 K, 4999 kPa, x2 = 0.474",1427 ± 13 kg/m3
same,mass density,"338.15 K, 6006 kPa, x2 = 0.536",1430 ± 6 kg/m3
same,mass density,"338.15 K, 7503 kPa, x2 = 0.612",1435 ± 10 kg/m3
